This note sets out measurements from the METLIN SMRT retention time set (Domingo-Almenara et al. 2019).

The series is described as follows: gradient 5% acetonitrile 3 min, to 50% in 2 min, to 85% in 15 min, held 3 min, 100 µL/min. The following applies: column: Zorbax Extend-C18 2.1 x 50 mm; eluents: water / acetonitrile, 0.1% formic acid. A digest of the protocol: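 The system's dead and dwell volumes were 40 μL and 900 μL, with a Zorbax Extend-C18 column (2.1 × 50 mm, 1.8 μm) run at 100 μL/min in water and acetonitrile containing 0.1% formic acid each. Pure standards were analyzed in mixtures of ~100 molecules by HPLC–quadrupole time-of-flight mass spectrometry in positive and negative ionization mode. Retention time was assigned from computationally picked, manually inspected adduct peaks.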
For `O=C(c1ccnc(N2CCNC(c3ccccc3)C2)c1)N1CCN(c2ncccn2)CC1` (centres undefined), the RP-LC retention time was 608 s.
In turn, `O=C1CCCc2cc(S(=O)(=O)Nc3ccc(CN4CCCCC4)cc3)ccc2N1` displayed an RP-LC retention time of 597 s.
`CCCCN(C)C(=O)CN1C(=O)CCCc2cc(S(=O)(=O)N3CCC(C)CC3)ccc21` displayed an RP-LC retention time of 971 s.
Then `O=C(NCc1ccccc1F)C1CCN(c2cc(N3CCCCC3)ncn2)CC1`, with 680 s; and `Cc1ccc(N2C(=O)N(Cc3ccccc3)S(=O)(=O)c3cccnc32)cc1`, with 1060 s.
Then `CC(=O)Nc1cccc(-c2nc(-c3ccc4nnn(C(C)C)c4c3)no2)c1`, with 859 s; and `O=C(CSCc1ccccc1)Nc1cccc(-c2cn3cccnc3n2)c1`, with 640 s.
Regarding `COCc1noc([C@@H]2CC(F)(F)CN2C(=O)C2CCCC2)n1`, the RP-LC retention time was 810 s.
The same measure for `Cc1cc2nc(CSc3nnc(-c4ccc(Cl)cc4)o3)cc(=O)n2o1`: 786 s.
Then `O=C(Cn1cccc1-c1nnc(C2CCC2)o1)N1CCc2ccccc2C1`, with 915 s.
Then `O=C([C@H]1C[C@@H](F)CN1S(=O)(=O)c1ccc(C(F)(F)F)cc1)N1CCOCC1`, with 738 s; and `COC(=O)c1cccc(Nc2c(-c3ccc(C)cc3)nc3cnccn23)c1`, with 849 s; and `COc1cc(Cc2nc(-c3cccc(-c4ccn[nH]4)c3)no2)cc(OC)c1`, with 937 s.
`CCOc1ccc(-c2noc(-c3nn(-c4cccc(OC)c4)ccc3=O)n2)cc1` returned an RP-LC retention time of 938 s.
Then `COc1ccc(OCc2noc(CNC(=O)Cn3cnc4ccccc43)n2)cc1`, with 592 s; and `CCOC(=O)C(=O)Nc1ccc(SCc2nnc(-c3ccccc3)o2)cc1`, with 881 s.
On to `COc1ccc(-c2cc(N3CCC(NC(=O)c4cccc(OC(F)(F)F)c4)C3)n[nH]2)cc1` (centres undefined), for which the RP-LC retention time is 828 s.
In the case of `O=C(c1cccc(N2CCNC(c3ccccc3)C2)n1)N1CCSCC1` (centres undefined), the RP-LC retention time came to 614 s.
Then `CCOc1ccc(NC(=O)Nc2cc(C(C)C)c(O)cc2C)cc1`, with 909 s.
`O=C(Nc1nnc(SCC(=O)N2CCc3ccccc32)s1)NC1CCCCC1`: the RP-LC retention time turned out to be 839 s.
Then `O=C(Nc1ccc2nc(N3CCCN(c4ncccn4)CC3)cc(C(=O)O)c2c1)c1ccc(F)cc1`, with 616 s; and `CC(C(=O)NCCc1c[nH]c2ccccc12)C1CCN(S(=O)(=O)c2cccs2)CC1` (centres undefined), with 841 s.
In turn, `Cc1ccc(-c2nc3nc(C)cc(N(CCO)CCO)n3n2)cc1` came in with an RP-LC retention time of 614 s.
The compound `CC(=O)N1CCN(C2=NC(=O)/C(=C\c3ccc(O)c([N+](=O)[O-])c3)S2)CC1` showed an RP-LC retention time of 589 s.
The same measure for `CCN1CCN(C(=O)Cn2c(=O)c3cnc(-c4ccc(Cl)cc4)nc3n(CC)c2=O)CC1`: 716 s.
Then `CCC(C(=O)N1CCN(c2cc(=O)n(C)c(=O)n2C)CC1)N1C(=O)COc2ccccc21` (centres undefined), with 702 s; and `Cc1cccc(N2C(=O)NC3CC2(C)Oc2ccccc23)c1` (centres undefined), with 852 s; and `O=C(NCCN1CCN(c2ccc(F)cc2)CC1)C(=O)NCc1ccc(F)cc1`, with 588 s.
In turn, `CCc1ccccc1NC(=O)c1cc(C(C)C)n2nccc2n1` yielded an RP-LC retention time of 1240 s.
Then `O=C(Cc1ccccc1Br)NC1CCN(c2cc(-c3ccc(F)cc3)[nH]n2)C1` (centres undefined), with 752 s; and `O=C(NC1CC1)[C@@H]1OCCN(C2CC2)[C@H]1c1ccccc1`, with 572 s.
Then `O=C(O)c1ccccc1-c1ccccc1C(=O)Nc1nc2ccccc2s1`, with 867 s; and `CCOC(=O)C1=C(C)NC(=O)NC1c1nc2ccccc2n1CC` (centres undefined), with 597 s.
For `CCCN1C(=O)COc2ccc(-c3csc(NC(=O)c4ccc(F)cc4)n3)cc21`, the RP-LC retention time was determined as 1060 s.
Then `COc1ccc(-c2cn3c(CC(=O)NCCc4cccs4)csc3n2)cc1OC`, with 692 s; and `Cc1ccc(S(=O)(=O)N2CC3CN(C(=O)c4cccn4C)CC(C2)O3)cc1`, with 807 s; and `O=C(Nc1cnc(N2CCCC2)nc1)c1ccc(F)cc1`, with 710 s.
In turn, `CC(C)CNC(=O)c1ccc2c(c1)CCCN2S(=O)(=O)c1ccccc1` showed an RP-LC retention time of 936 s.
Then `COc1cc(C(=O)N(Cc2ccc(N(C)C)cc2)CC2CCCO2)cc(OC)c1OC` (centres undefined), with 659 s; and `Cc1ccc(NC(=O)CCC(=O)N2CCSc3nc(C)cc(C)c32)cc1`, with 717 s.
Consider `Cn1cc(CCN2CCN(S(=O)(=O)c3ccc4c(c3)CCC4)CC2)c2cccnc21`, for which the RP-LC retention time worked out at 668 s.
The same measure for `CCCn1ccc2sc(C)c(C(=O)N3CCN(c4ccccc4F)CC3)c2c1=O`: 916 s.
For `COc1ccc(-c2nc3cc(C)ccn3c2Nc2ccc3c(c2)OCO3)cc1`, the RP-LC retention time is 646 s.
Then `COc1ccc(Cl)cc1C(=O)Nc1ccc2c(c1)CN(C(=O)c1cccs1)CC2`, with 958 s.
Then `Cc1cnc(C(=O)NC2C[C@H]3CC[C@@H](C2)N3C(=O)CCC2CCCC2)cn1` (some centres undefined), with 762 s; and `COc1cccc2c(Nc3ccccc3C)cc(C(=O)N3CCSCC3)nc12`, with 689 s.
As to `COc1ccccc1-c1cc(C(=O)N2CCN(c3cc(=O)n(C(C)C)c(=O)n3C(C)C)CC2)[nH]n1`, the RP-LC retention time was determined as 861 s.
Then `CCCn1cc(C2=CCN(S(=O)(=O)c3ccc(OC)c(Cl)c3)CC2)c2cccnc21`, with 921 s.
The same measure for `Cc1nc(C2(C)CCN(C(=O)CCc3cc(Cl)no3)CC2)no1`: 750 s; for `CCOC(=O)c1c(S(=O)(=O)NCC(=O)N2CCN(c3ccccn3)CC2)c(C)n(C)c1C`: 618 s.
Then `O=C(O)c1cnc(-c2ccc(F)cc2)nc1-c1ccncc1`, with 690 s; and `COc1ccc2c(ccn2CCNC(=O)C2CC(=O)N(c3n[nH]c4ccccc34)C2)c1` (centres undefined), with 722 s.
`COc1cccc(-c2noc(Cc3nnc(-c4ccc(C)c(F)c4)o3)n2)c1OC` displayed an RP-LC retention time of 1010 s.
The same measure for `Cc1ccc(NS(=O)(=O)c2c(C)sc(C)c2-c2cc(C(F)(F)F)on2)cc1`: 1190 s; for `COc1ccc(NC(=O)Cn2nc3nc(N4CCSCC4)ccn3c2=O)cc1OC`: 639 s; for `Cc1cc2nn(CC(=O)Nc3ccc(F)cc3)c(=O)n2c(Nc2ccc(F)cc2)n1`: 972 s.
Then `Cc1ccc2nc(-c3cccc(S(=O)(=O)N4CCCC4)c3)cn2c1`, with 657 s; and `Cc1ccc(S(=O)(=O)Nc2cccc(-c3cn4ccccc4n3)c2)cc1C`, with 648 s.
On to `COc1cc(C(=O)Nc2nc3c(C)cc(Cl)cc3s2)cc(OC)c1OC`, for which the RP-LC retention time turned out to be 1120 s.
Compound `O=C(NCc1ccccc1)N1CCN(c2cnn3c(C4CC4)nnc3c2)CC1` displayed an RP-LC retention time of 578 s.
For `COC1CCC12CCN(S(=O)(=O)c1ccc(F)c(C)c1)CC2` (centres undefined), the RP-LC retention time worked out at 1030 s.
Then `Cc1[nH]c(C(=O)N2CCCC(C(=O)N3CCN(c4ccccc4)CC3)C2)c(C)c1C` (centres undefined), with 853 s.
`Cc1ccc2ncn(C3CCN(S(=O)(=O)c4ccc(F)cc4F)CC3)c(=O)c2c1` yielded an RP-LC retention time of 904 s.
`CSc1ccc(-c2nc3cnccn3c2Nc2ccc(C(C)C)cc2)cc1` showed an RP-LC retention time of 1160 s.
Then `O=C(c1cc(F)cc(F)c1)N1CCN(c2cc(-c3ccc(F)cc3)[nH]n2)CC1`, with 837 s; and `CCn1cc(-c2ccc(F)cc2)cc1C(=O)N1CCCC1`, with 959 s.
Then `CCc1nc(-c2cc(S(=O)(=O)N3CCC(C(=O)NC4CC4)CC3)c(C)s2)no1`, with 744 s; and `O=C(NCCc1ccccc1)C1CCCN(C(=O)Cc2cccc3ccccc23)C1` (centres undefined), with 906 s; and `COc1ccc(-c2noc(CSc3nc4cc5c(cc4c(=O)n3CC3CCCO3)OCO5)n2)cc1` (centres undefined), with 1090 s.
Then `O=C(Nc1ncc([N+](=O)[O-])s1)c1c2c(nn1C1CCS(=O)(=O)C1)CCC2` (centres undefined), with 792 s.
For `CN1CCC2(CC1)CN(S(=O)(=O)N(C)C)CC2C(=O)N1CCc2ccccc21` (centres undefined), the RP-LC retention time is 631 s.
The same measure for `Cc1nc2c(c(N3CCSCC3)n1)CCC2`: 588 s.
With `CCNC(=O)Nc1ccc2c(c1)CN(Cc1ccc(F)cc1F)CCO2`, the RP-LC retention time is 611 s.
Then `COCc1nncn1C1CN(C(=O)Cc2cc(OC)cc(OC)c2)C1`, with 620 s; and `Clc1nc(NCCc2ccccc2)c2cn[nH]c2n1`, with 827 s; and `CCCCC1CCC(C(=O)Nc2nc(-c3ccc4c(c3)NC(=O)CO4)c(C)s2)CC1` (centres undefined), with 1240 s.
`O=S(=O)(c1ccccc1Cl)N1CC(F)(F)C[C@H]1CN1CCc2ccccc2C1` registered an RP-LC retention time of 760 s.
The compound `O=C(c1ccc(F)c(F)c1Nc1ccc(I)cc1F)N1CC(O)([C@H]2CCCCN2)C1` showed an RP-LC retention time of 822 s.
Consider `O=C([C@@H]1C[C@H](F)CN1S(=O)(=O)Cc1ccccc1)N1CCOCC1`, for which the RP-LC retention time is 692 s.
